AC50 data for 38 molecules are collected here from patent US20250171438A1 (Agios Pharmaceuticals, Inc., priority 2022, published 2025).

The target of the experiment is T1, human PAH with the R408W mutation (Homo sapiens, UniProt P00439, R408W).
T1 construct: expressed in transfected cells
T1 sequence (P00439 1-452 R408W): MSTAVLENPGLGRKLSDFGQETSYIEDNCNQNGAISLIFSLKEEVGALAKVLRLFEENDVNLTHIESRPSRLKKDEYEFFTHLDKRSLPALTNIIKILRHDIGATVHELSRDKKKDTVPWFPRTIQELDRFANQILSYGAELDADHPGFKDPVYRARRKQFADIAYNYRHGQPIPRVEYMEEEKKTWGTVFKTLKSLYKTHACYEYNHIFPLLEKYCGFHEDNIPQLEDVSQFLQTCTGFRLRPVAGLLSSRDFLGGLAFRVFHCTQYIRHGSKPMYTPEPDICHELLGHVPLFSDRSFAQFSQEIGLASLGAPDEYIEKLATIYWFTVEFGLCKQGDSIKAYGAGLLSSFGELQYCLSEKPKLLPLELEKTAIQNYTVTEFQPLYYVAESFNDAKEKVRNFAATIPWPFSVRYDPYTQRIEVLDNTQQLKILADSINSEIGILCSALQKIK
Description: Cell Based Phenylalanine Flux Assay. On the set-up: scale not given here. As to conditions: A375 cells expressing human R408W PAH, 13C-Tyrosine by LC-MS, average where tested multiple times.

Where [1] appears, read: 24 hrs with compound, read-out: AC50.
Where [2] appears, read: 24 hrs compound incubation, read-out: AC50.

Like-named read-outs stand apart in the source and are kept apart here.

In general, AC50 refers to the concentration at which the activity in the assay is half-maximal. On to `O=C(c1cnn2cc(N3CCCC3)ccc12)N1CCc2[nH]cnc2C1c1nc2ccccc2s1` (centres unmarked), for which the AC50 under setting [1] was 1000 to 5000 nM. On to `CC(C)n1cc(-c2ncc(C(=O)N3CCc4[nH]cnc4[C@H]3c3nc4ccccc4s3)o2)cn1` [Example 1415], for which the AC50 under setting [2] is less than 500 nM. `Cn1nc(Br)nc1C(=O)N1CCc2[nH]cnc2[C@H]1c1nc2ccccc2s1` [Example 1977]: the half-maximal activity concentration (AC50) under setting [2] was 1000 to 5000 nM. The same measure, in the same setting: to `CC1(c2nc(C(F)F)c(C(=O)N3CCc4[nH]cnc4[C@@H]3c3nc4ccccc4s3)o2)CC1` [Example 1852, (R)-(4-(benzo[d]thiazol-2-yl)-6,7-dihydro-1H-imidazo[4,5-c]pyridin-5(4H)-yl)(4-(difluoromethyl)-2-(1-methylcyclopropyl)oxazol-5-yl)methanone] belongs less than 500 nM; to `O=C(c1nnc(-c2ccc(F)c(F)c2)o1)N1CCc2[nH]cnc2[C@H]1c1nc2c(F)cccc2s1` [Example 1878, (S)-(5-(3,4-difluorophenyl)-1,3,4-oxadiazol-2-yl)(4-(4-fluorobenzo[d]thiazol-2-yl)-6,7-dihydro-1H-imidazo[4,5-c]pyridin-5(4H)-yl)methanone], less than 500 nM; to `c1ccc2sc([C@@H]3c4nc[nH]c4CCN3CCC3CC3)nc2c1` [Example 1276, (S)-2-(5-(2-cyclopropylethyl)-4,5,6,7-tetrahydro-1H-imidazo[4,5-c]pyridin-4-yl)benzo[d]thiazole], less than 500 nM. The same measure, in the same setting: to `O=C(CCC1CC1)N1CCc2[nH]cnc2[C@@H]1c1nc2ccc(Cl)cc2[nH]1` [Example 938, (R)-1-(4-(6-chloro-1H-benzo[d]imidazol-2-yl)-6,7-dihydro-1H-imidazo[4,5-c]pyridin-5(4H)-yl)-3-cyclopropylpropan-1-one] belongs 1000 to 5000 nM. On the same count and under the same terms, to `O=C(c1oc(NC2CC2)nc1C(F)(F)F)N1CCc2[nH]cnc2[C@@H]1c1nc2ccccc2s1` [Example 1560, (R)-(4-(benzo[d]thiazol-2-yl)-6,7-dihydro-1H-imidazo[4,5-c]pyridin-5(4H)-yl)(2-(cyclopropylamino)-4-(trifluoromethyl)oxazol-5-yl)methanone] belongs less than 500 nM. In the case of `O=C(c1nnc(-c2ncccc2F)o1)N1CCc2[nH]cnc2[C@H]1c1nc2ccccc2s1` [Example 1710], the AC50 under setting [2] fell in the range of 1000 to 5000 nM. On to `O=C(C1CC1)N1CCc2[nH]cnc2[C@H]1c1nc2ccccc2[nH]1` [(S)-(4-(1H-benzo[d]imidazol-2-yl)-1,4,6,7-tetrahydro-5H-imidazo[4,5-c]pyridin-5-yl)(cyclopropyl)methanone], for which the AC50 under setting [1] lay within 1000 to 5000 nM.

For the molecule `O=C(c1ocnc1C(F)F)N1CCc2[nH]cnc2[C@@H]1c1nc2ccccc2s1` [Example 1540, (R)-(4-(benzo[d]thiazol-2-yl)-6,7-dihydro-1H-imidazo[4,5-c]pyridin-5(4H)-yl)(4-(difluoromethyl)oxazol-5-yl)methanone], the half-maximal activity concentration (AC50) under setting [2] is less than 500 nM. Consider `O=C(c1nccs1)N1CCc2[nH]cnc2[C@H]1c1nc2ccccc2[nH]1` [Example 903, (S)-(4-(1H-benzo[d]imidazol-2-yl)-6,7-dihydro-1H-imidazo[4,5-c]pyridin-5(4H)-yl)(thiazol-2-yl)methanone], for which the AC50 under setting [2] is 500 to 1000 nM. Still for that read-out and setting: to `Cn1nc(C(F)F)cc1C(=O)N1CCc2[nH]cnc2[C@@H]1c1nc2c(F)cccc2s1` [Example 1732, (R)-(3-(difluoromethyl)-1-methyl-1H-pyrazol-5-yl)(4-(4-fluorobenzo[d]thiazol-2-yl)-6,7-dihydro-1H-imidazo[4,5-c]pyridin-5(4H)-yl)methanone] belongs 1000 to 5000 nM; to `O=C(c1nnc(-c2cc[nH]n2)o1)N1CCc2[nH]cnc2[C@H]1c1nc2ccccc2s1` [Example 1899], less than 500 nM; to `O=C(CCc1nccs1)N1CCc2[nH]cnc2[C@H]1c1nc2cccc(Br)c2s1` [Example 1121, (S)-1-(4-(7-bromobenzo[d]thiazol-2-yl)-6,7-dihydro-1H-imidazo[4,5-c]pyridin-5(4H)-yl)-3-(thiazol-2-yl)propan-1-one], 500 to 1000 nM. Regarding `CC(C)(O)CCc1nc(C(F)(F)F)c(C(=O)N2CCc3[nH]cnc3C2c2nc3ccccc3s2)o1` (centres unmarked), the half-maximal activity concentration (AC50) entry (24 hrs with compound) is given as “E, E”. Consider `Cn1nc(CC#N)nc1C(=O)N1CCc2[nH]cnc2[C@H]1c1nc2ccccc2s1` (single isomer, unassigned), for which the AC50 under setting [1] lay within 1000 to 5000 nM. As to `Cn1nc(Cl)nc1C(=O)N1CCc2[nH]cnc2[C@@H]1c1nc2c(F)cccc2s1` [Example 1956, (R)-(3-chloro-1-methyl-1H-1,2,4-triazol-5-yl)(4-(4-fluorobenzo[d]thiazol-2-yl)-6,7-dihydro-1H-imidazo[4,5-c]pyridin-5(4H)-yl)methanone], the AC50 under setting [2] was 1000 to 5000 nM. For the molecule `O=C(c1oc(N2CCOCC2)nc1C(F)(F)F)N1CCCc2[nH]cnc2[C@@H]1c1nc2ccccc2s1` [Example 2134, (R)-(4-(benzo[d]thiazol-2-yl)-7,8-dihydroimidazo[4,5-c]azepin-5(1H,4H,6H)-yl)(2-morpholino-4-(trifluoromethyl)oxazol-5-yl)methanone], the concentration at half-maximal activity (AC50) under setting [2] was in the range of 1000 to 5000 nM. For the molecule `CC(O)(c1nc(C(F)(F)F)c(C(=O)N2CCc3[nH]cnc3[C@@H]2c2nc3ccccc3s2)o1)C1CC1` (single isomer, unassigned) [Example 1564], the half-maximal activity concentration (AC50) under setting [2] is less than 500 nM. On the same count and under the same terms, to `Cc1cccc2nc([C@@H]3c4nc[nH]c4CCN3C(=O)c3cncs3)sc12` [Example 1316, (S)-(4-(7-methylbenzo[d]thiazol-2-yl)-6,7-dihydro-1H-imidazo[4,5-c]pyridin-5(4H)-yl)(thiazol-5-yl)methanone] belongs less than 500 nM. In the case of `Cn1ncc(C(=O)N2CCc3[nH]cnc3C2c2nc3c(F)cccc3s2)c1C#N` (centres unmarked), the concentration at half-maximal activity (AC50) under setting [1] is more than 5000 nM. The same measure, in the same setting: to `Cc1cnc(CCC(=O)N2CCc3[nH]cnc3[C@H]2c2nc3ccccc3[nH]2)s1` [(S)-1-(4-(1H-benzo[d]imidazol-2-yl)-1,4,6,7-tetrahydro-5H-imidazo[4,5-c]pyridin-5-yl)-3-(5-methylthiazol-2-yl)propan-1-one] belongs 1000 to 5000 nM; to `O=C(c1nnc(C2CNC2)o1)N1CCc2[nH]cnc2C1c1nc2ccccc2s1` (centres unmarked), more than 5000 nM; to `COCc1ncc(C(=O)N2CCc3[nH]cnc3C2c2nc3ccccc3s2)o1` (centres unmarked), more than 5000 nM. On to `Cc1cccc2nc([C@@H]3c4nc[nH]c4CCN3C(=O)c3cnco3)sc12` [Example 2179, (S)-(4-(7-methylbenzo[d]thiazol-2-yl)-6,7-dihydro-1H-imidazo[4,5-c]pyridin-5(4H)-yl)(oxazol-5-yl)methanone], for which the AC50 under setting [2] is less than 500 nM. Same read-out and setting: with `O=C(c1oc(-c2ccccn2)nc1C1CC1)N1CCc2[nH]cnc2[C@@H]1c1nc2ccccc2s1` [Example 1516, (R)-(4-(benzo[d]thiazol-2-yl)-6,7-dihydro-1H-imidazo[4,5-c]pyridin-5(4H)-yl)(4-cyclopropyl-2-(pyridin-2-yl)oxazol-5-yl)methanone] the figure was more than 5000 nM; with `CC(C)n1ncc(C(=O)N2CCc3[nH]cnc3[C@H]2c2nc3c(F)cccc3s2)c1Br` [Example 1953], 500 to 1000 nM. Consider `Nc1cnc(N2CCc3[nH]cnc3C2c2nc3ccccc3s2)nc1` (centres unmarked), for which, under setting [1], the AC50 was 1000 to 5000 nM.

Turning to `Cc1nnc(C(=O)N2CC3(CC3)c3[nH]cnc3[C@@H]2c2nc3ccccc3s2)o1` [Example 1685, (R)-(4′-(benzo[d]thiazol-2-yl)spiro[cyclopropane-1,7′-imidazo[4,5-c]pyridin]-5′(1′H,4′H,6′H)-yl)(5-methyl-1,3,4-oxadiazol-2-yl)methanone], under setting [2], the half-maximal activity concentration (AC50) lay in the range of 1000 to 5000 nM. Regarding `Cn1nc(C2CC2)cc1C(=O)N1CCc2[nH]cnc2C1c1nc2c(F)cccc2s1` (centres unmarked), under setting [1], the AC50 lay in the range of 1000 to 5000 nM. The same measure, in the same setting: with `Cn1cc(-c2ncc(C(=O)N3CCc4[nH]cnc4[C@H]3c3nc4ccccc4[nH]3)s2)cn1` [(S)-(4-(1H-benzo[d]imidazol-2-yl)-6,7-dihydro-1H-imidazo[4,5-c]pyridin-5(4H)-yl)(2-(1-methyl-1H-pyrazol-4-yl)thiazol-5-yl)methanone] the figure was more than 5000 nM. As to `O=C(CCc1nccs1)N1CCc2[nH]cnc2[C@@H]1c1nc2ccccc2[nH]1` [Example 901, (R)-1-(4-(1H-benzo[d]imidazol-2-yl)-6,7-dihydro-1H-imidazo[4,5-c]pyridin-5(4H)-yl)-3-(thiazol-2-yl)propan-1-one], under setting [2], the AC50 was more than 5000 nM. As for `O=C(c1cnn2cc(CCc3ccccc3)ccc12)N1CCc2[nH]cnc2C1c1nc2ccccc2s1` (centres unmarked), the AC50 under setting [1] was 1000 to 5000 nM.

`Cn1nc(C(C)(C)O)nc1C(=O)N1CCc2[nH]cnc2C1c1nc2c(F)cccc2s1` (centres unmarked): the half-maximal activity concentration (AC50) under setting [1] is more than 5000 nM.

Regarding `O=C(c1ocnc1CF)N1CCc2[nH]cnc2[C@H]1c1nc2c(F)cccc2s1` [Example 2041, (S)-(4-(4-fluorobenzo[d]thiazol-2-yl)-6,7-dihydro-1H-imidazo[4,5-c]pyridin-5(4H)-yl)(4-(fluoromethyl)oxazol-5-yl)methanone], the half-maximal activity concentration (AC50) under setting [2] was less than 500 nM. In the case of `O=C(c1nnc(-c2cnn(CC(F)F)c2)o1)N1CCc2[nH]cnc2[C@@H]1c1nc2ccccc2s1` [Example 1872, (R)-(4-(benzo[d]thiazol-2-yl)-6,7-dihydro-1H-imidazo[4,5-c]pyridin-5(4H)-yl)(5-(1-(2,2-difluoroethyl)-1H-pyrazol-4-yl)-1,3,4-oxadiazol-2-yl)methanone], the half-maximal activity concentration (AC50) under setting [2] fell in the range of 1000 to 5000 nM.

In the case of `COCCc1ncc(C(=O)N2CC(C)c3[nH]cnc3C2c2nc3ccccc3s2)o1` [(4R,7S) diastereomer of 2-[5-[2-(2-methoxyethyl)-1,3-oxazole], the AC50 result (24 hrs with compound) is recorded as “E, E”.
